In brackets after ≈: the same amount, converted by molar mass. Like-named read-outs stand apart in the source and are kept apart here.
Tests used:
[1] = Storage stability of Formulations 1-3 (dl-α-tocopherol assay, total impurities); format: physicochemical; settings: various storage conditions
Protocol: Three-week and four-week storage stabilities, as per Table 15, of Formulations 1-3 were determined under standard storage conditions of 5° C., storage at room temperature, and storage at 40° C./75% RH. The total impurities were less than 1% at the end of three- or four-week storage at 5° C., RT, and 40° C./75% RH.

[2] = Viscosities of the components in the prototype formulations; format: physicochemical; settings: neat excipient
Source text: Once injected into the muscle tissue, it forms a depot and the formulation components begin to diffuse into the surrounding tissue and the circulatory system. The rate of diffusion for each component depends on the solubility, permeability, and viscosity of the formulation in the local environment of the depot. Notwithstanding the complexity of the in vivo situation, and without wishing to be held to a particular theory, it is expected that the viscosity of the formulation is a critical factor that affects the diffusion of the formulation components from the site of injection, including from the point of view of ease of injection, diffusion into the muscle tissue, and rate of absorption.

[3] = tested on: HR-positive metastatic breast cancer; settings: cited from earlier work
[4] = cited from earlier work

Cc1c(C)c2c(c(C)c1O)CCC(C)(CCCC(C)CCCC(C)CCCC(C)C)O2 (racemic) [dl-α-Tocopherol, dl-α-tocopherol]
Stability of dl-α-Tocopherol in the formulations [1]: unstable and susceptible to degradation

OCc1ccccc1 [Benzyl alcohol]
Viscosity (cp) [2]: 5.40 cp

CCO [Ethyl alcohol (Ethanol), Ethanol]
Viscosity (cp) [2]: 1.04 cp

C[C@]12CC[C@@H]3c4ccc(O)cc4C[C@@H](CCCCCCCCC[S+]([O-])CCCC(F)(F)C(F)(F)F)[C@H]3[C@@H]1CC[C@@H]2O (stereo partly drawn) [Fulvestrant, 7α-[9-[(4,4,5,5,5-pentafluoropentyl)sulfinyl]nonyl]-estra-1,3,5(10)-triene-3,17β-diol]
Median overall survival ([3]; fulvestrant 250 mg IM): 22.3 months | Median overall survival ([3]; fulvestrant 500 mg IM): 26.4 months | Progression-free survival (PFS) ([3]; fulvestrant 500 mg compared with 250 mg): statistically significant increase | Solubility (mg/ml) at 25° C. ([4]; in Benzyl alcohol, 25° C.): >200 mg/mL | Solubility (mg/ml) at 25° C. ([4]; in Benzyl benzoate, 25° C.): 6.15 mg/mL (≈ 10.1 mM) | Solubility (mg/ml) at 25° C. ([4]; in Ethanol, 25° C.): >200 mg/mL | Solubility (mg/ml) at 25° C. ([4]; in Ethyl oleate, 25° C.): 1.25 mg/mL (≈ 2.06 mM) | Solubility (mg/ml) at 25° C. ([4]; in Isopropyl myristate, 25° C.): 0.80 mg/mL (≈ 1.32 mM) | Solubility (mg/ml) at 25° C. ([4]; in Migloyl 810, 25° C.): 3.06 mg/mL (≈ 5.04 mM) | Solubility (mg/ml) at 25° C. ([4]; in Migloyl 812, 25° C.): 2.72 mg/mL (≈ 4.48 mM) | Solubility (mg/ml) at 25° C. ([4]; in Polyethylene glycol (PEG 400), 25° C.): 22.5 mg/mL (≈ 37.1 mM) | Solubility (mg/ml) at 25° C. ([4]; in Propylene glycol, 25° C.): 4.0 mg/mL (≈ 6.59 mM) | Solubility (mg/ml) at 25° C. ([4]; in SPAN ® 85, 25° C.): 3.79 mg/mL (≈ 6.25 mM) | Solubility (mg/ml) at 25° C. ([4]; in Sesame oil, 25° C.): 0.58 mg/mL (≈ 0.956 mM)

CC(O)CO (stereo not shown) [Propylene glycol]
Viscosity (cp) [2]: 42.00 cp

sorbitan monolaurate [SPAN ® 20]
Viscosity (cp) [2]: 1000-2000 cp
